{
  "source": "paper PMC11457607",
  "about": "(Oncoimmunology, 2024)",
  "origin": "cited, not measured here",
  "key": {"SSTR2": {"tested_on": "SSTR2", "details": "cyclic peptide agonist; in words"}, "SSTR5": {"tested_on": "SSTR5", "details": "cyclic peptide agonist; in words"}, "NETs": {"tested_on": "NETs", "details": "local irradiation, clinical trials"}, "[1]": {"details": "clinical diagnostic dye, i.v."}},
  "data": [
    {"compound": "DOTA-Tyr[3]-octreotate [DOTA-TATE]", "values": [
      {"measurement": "affinity to SSTR2", "setting": "SSTR2", "result": "high affinity to SSTR2"},
      {"measurement": "affinity to SSTR5", "setting": "SSTR5", "result": "binds with a high affinity to SSTR2 and SSTR5"}
    ]},
    {"compound": "[^177Lu]Lu-DOTA-TATE", "values": [
      {"measurement": "slowing progression of NETs", "setting": "NETs", "result": "high specificity and efficacy in slowing the progression of NETs"}
    ]},
    {"compound": "O=C1OC2(c3ccc(O)cc3Oc3cc(O)ccc32)c2ccccc21", "note": "[fluorescein]", "values": [
      {"measurement": "safety of intravenous injection", "setting": "[1]", "result": "without reported overt safety concerns"}
    ]}
  ]
}
